Laboratory results as given in patent US20090042238A1, “Method of evaluating cell function, system for evaluating cell function, fluorescent microscope system, phototherapy method and phototherapy system” (NIKON CORPORATION, priority 2006, published 2009).

Tested on: mitochondria in living cells
Experiment: evaluation of cell function (phototoxic property) with confocal fluorescence microscope system
Format: cell-based
Text: The following describes an example of the evaluation of cell function according to the present invention, performed with the confocal fluorescence microscope system of the First Embodiment.
RH123, used as a fluorescent dye, was applied to the mitochondria in living cells to prepare a specimen. The specimen was two-dimensionally scanned by irradiating an argon laser (488 nm) emitted in a predetermined intensity from the excitation light source 11, so as to obtain a fluorescence image of one frame.
FIG. 8(A) is the actual first fluorescence image obtained. Predetermined positions of the mitochondria (stained area) and the cellular cytoplasm (reference point) were specified by rectangular shaped frames, and a mean value of brightness values of the pixels in each of these specific areas was determined. These mean values were used as the brightness value of the mitochondria, and the brightness value of the cellular cytoplasm, respectively.
This procedure of obtaining the fluorescence image was repeated under the same conditions, and the brightness values of the mitochondria and the cellular cytoplasm were measured. FIG. 8(B) is the actual 50th fluorescence image, and FIG. 8(C) is the actual 150th fluorescence image obtained. It can be seen from FIG. 8 that the fluorescence image indeed undergoes changes as described in the First Embodiment with reference to FIG. 2.

## Rhodamin 123 [RH123]
Argon laser (488 nm) of a predetermined intensity, repeated imaging, FIG. 9(A)
  frame number in which the brightness value of the cellular cytoplasm has the peak (functional depression of the mitochondria complete): 50
Laser beam having a weaker intensity than in FIG. 9(A), otherwise same conditions, FIG. 9(B)
  frame number in which the brightness value of the cellular cytoplasm has the peak: 70
